Laboratory results published in patent US9776995B2, “Bicyclic sulfonamide compounds as sodium channel inhibitors” (AMGEN INC., priority 2013, dated 2017).
Read-outs that look alike come from different tables or passages of the source.

Molecular target: Nav 1.7 (Homo sapiens (Human), UniProt Q15858)
Assay: Nav 1.7 in vitro PX assay (PatchXpress whole cell voltage clamp);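 further: holding potential set for 20 to 50% inactivation, sodium current evoked by a 20 ms step to −10 mV, peak current inhibition read after compound exposure, 3–5 cells per concentration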
Type: cell-based
[1] = HEK 293 cells stably transfected with human Nav1.7, PatchXpress, partially inactivated state

Nav 1.7, sequence (Q15858 whole entry): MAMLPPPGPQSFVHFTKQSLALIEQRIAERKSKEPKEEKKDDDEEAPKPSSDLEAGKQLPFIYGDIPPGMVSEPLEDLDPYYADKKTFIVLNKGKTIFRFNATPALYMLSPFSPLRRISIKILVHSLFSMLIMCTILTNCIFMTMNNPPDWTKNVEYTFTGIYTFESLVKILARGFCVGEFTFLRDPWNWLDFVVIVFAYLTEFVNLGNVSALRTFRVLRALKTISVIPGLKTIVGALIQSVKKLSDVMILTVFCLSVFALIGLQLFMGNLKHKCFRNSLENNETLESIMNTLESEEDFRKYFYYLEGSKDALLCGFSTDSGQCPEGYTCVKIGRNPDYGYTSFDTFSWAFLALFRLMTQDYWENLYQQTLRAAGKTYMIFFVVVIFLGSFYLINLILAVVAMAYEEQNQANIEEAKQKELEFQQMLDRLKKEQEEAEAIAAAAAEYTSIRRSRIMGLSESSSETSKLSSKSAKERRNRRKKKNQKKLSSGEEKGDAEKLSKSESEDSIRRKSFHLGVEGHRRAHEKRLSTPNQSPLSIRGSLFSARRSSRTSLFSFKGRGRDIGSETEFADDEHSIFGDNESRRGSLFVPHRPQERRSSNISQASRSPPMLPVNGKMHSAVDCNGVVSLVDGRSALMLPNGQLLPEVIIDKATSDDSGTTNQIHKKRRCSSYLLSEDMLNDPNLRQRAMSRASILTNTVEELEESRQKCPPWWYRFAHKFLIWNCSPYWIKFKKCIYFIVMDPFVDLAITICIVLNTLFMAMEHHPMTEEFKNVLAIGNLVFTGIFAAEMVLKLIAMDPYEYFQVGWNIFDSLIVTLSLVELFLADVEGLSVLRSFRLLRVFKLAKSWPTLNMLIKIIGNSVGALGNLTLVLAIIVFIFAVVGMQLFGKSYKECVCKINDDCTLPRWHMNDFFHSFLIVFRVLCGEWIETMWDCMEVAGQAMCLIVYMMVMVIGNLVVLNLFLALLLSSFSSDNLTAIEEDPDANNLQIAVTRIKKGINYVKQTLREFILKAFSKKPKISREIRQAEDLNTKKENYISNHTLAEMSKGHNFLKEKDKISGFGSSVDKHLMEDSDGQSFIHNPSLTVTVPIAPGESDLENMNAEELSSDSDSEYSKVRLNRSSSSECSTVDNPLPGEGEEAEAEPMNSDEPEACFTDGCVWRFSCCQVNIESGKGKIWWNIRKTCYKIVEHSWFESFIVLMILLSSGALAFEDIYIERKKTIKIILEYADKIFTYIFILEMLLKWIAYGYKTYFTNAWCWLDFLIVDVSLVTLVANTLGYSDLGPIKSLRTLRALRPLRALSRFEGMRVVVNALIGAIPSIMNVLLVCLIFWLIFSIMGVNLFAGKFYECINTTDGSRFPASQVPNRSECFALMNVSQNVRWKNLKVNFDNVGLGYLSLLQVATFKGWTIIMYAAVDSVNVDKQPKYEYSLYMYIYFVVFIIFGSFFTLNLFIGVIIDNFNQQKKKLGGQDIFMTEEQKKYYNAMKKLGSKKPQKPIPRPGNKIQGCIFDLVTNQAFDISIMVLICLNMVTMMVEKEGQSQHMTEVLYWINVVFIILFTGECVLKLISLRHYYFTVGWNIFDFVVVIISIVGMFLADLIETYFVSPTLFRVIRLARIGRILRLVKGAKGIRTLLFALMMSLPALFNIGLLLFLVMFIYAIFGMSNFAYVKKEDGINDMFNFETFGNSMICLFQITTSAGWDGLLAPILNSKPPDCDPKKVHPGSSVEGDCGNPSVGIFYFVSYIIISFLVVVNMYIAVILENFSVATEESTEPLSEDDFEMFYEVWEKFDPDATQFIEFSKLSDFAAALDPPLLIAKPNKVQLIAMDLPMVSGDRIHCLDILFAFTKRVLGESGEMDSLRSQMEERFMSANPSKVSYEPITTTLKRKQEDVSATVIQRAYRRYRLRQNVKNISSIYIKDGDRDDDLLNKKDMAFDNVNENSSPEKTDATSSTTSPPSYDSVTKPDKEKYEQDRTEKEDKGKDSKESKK

In the case of `COc1cc(-c2ccc(F)cc2F)c(C)cc1-c1ncnc2cc(S(=O)(=O)Nc3ccon3)ccc12` [Example 563, 4-(2′,4′-difluoro-5-methoxy-2-methyl-4-biphenylyl)-N-3-isoxazolyl-7-quinazolinesulfonamide], the IC50 [1] is reported as 105 nM.
`COc1cc(-c2cccc(F)c2)c(Cl)cc1-c1c(=O)[nH]cc2cc(S(=O)(=O)Nc3ccon3)ccc12` [Example 398, 4-(2-CHLORO-3′-FLUORO-5-METHOXY-[1,1′-BIPHENYL]-4-YL)-N-(ISOXAZOL-3-YL)-3-OXO-2,3-DIHYDROISOQUINOLINE-7-SULFONAMIDE] was tested, and the IC50 [1] was 27 nM.
`COc1cc(-c2cccc(Cl)c2)c(C)cc1-c1ncnc2cc(S(=O)(=O)Nc3ncccn3)ccc12` [Example 440, 4-(3′-CHLORO-5-METHOXY-2-METHYL-[1,1′-BIPHENYL]-4-YL)-N-(PYRIMIDIN-2-YL)QUINAZOLINE-7-SULFONAMIDE] was tested, and the IC50 [1] was 65 nM.
`COc1cc(-c2cccc(C(F)(F)F)c2)c(C#N)cc1-c1nccc2cc(S(=O)(=O)Nc3ncc(F)cn3)ccc12` [Example 374, 1-(2-Cyano-5-methoxy-3′-(trifluoromethyl)-[1,1′-biphenyl]-4-yl)-N-(5-fluoropyrimidin-2-yl)isoquinoline-6-sulfonamide] was tested, and the IC50 [1] was 94 nM.
Work on `COc1cc(-c2ccc(Cl)c(F)c2)ccc1-c1nccc2cc(S(=O)(=O)Nc3ncccn3)ccc12` [Example 293, 1-(4′-chloro-3′-fluoro-3-methoxy-4-biphenylyl)-N-2-pyrimidinyl-6-isoquinolinesulfonamide] yielded an IC50 (in-vitro Nav 1.7 PX (PatchXpress)) of 407 nM.
Work on `COc1cc(-c2cccc(F)c2)c(Cl)cc1-c1ncnc2cc(S(=O)(=O)Nc3cscn3)ccc12` [Example 378, 4-(2-chloro-3′-fluoro-5-methoxy-[1,1′-biphenyl]-4-yl)-N-(thiazol-4-yl)quinazoline-7-sulfonamide 2,2,2-trifluoroacetate] yielded an IC50 of 231 nM.
Molecule `COc1cc(C(F)(F)F)c(C)cc1-c1nccc2cc(S(=O)(=O)Nc3ccon3)ccc12` [Example 60, N-(ISOXAZOL-3-YL)-1-(2-METHOXY-5-METHYL-4-(TRIFLUOROMETHYL)PHENYL)ISOQUINOLINE-6-SULFONAMIDE] has an IC50 (PatchXpress (PX)) of 189 nM.
With `COc1cc(-c2cccc(F)c2)ccc1-c1c(=O)n(C)cc2cc(S(=O)(=O)Nc3ccon3)ccc12` [Example 589, 4-(3′-fluoro-3-methoxy-4-biphenylyl)-N-3-isoxazolyl-2-methyl-3-oxo-2,3-dihydro-7-isoquinolinesulfonamide] the IC50 [1] was 533 nM.
In the case of `COc1cc(-c2ccc(Cl)c(C)c2)c(F)cc1-c1c[nH]c(=O)c2cc(S(=O)(=O)Nc3ccon3)ccc12` [Example 452, 4-(4′-CHLORO-2-FLUORO-5-METHOXY-3′-METHYL-[1,1′-BIPHENYL]-4-YL)-N-(ISOXAZOL-3-YL)-1-OXO-1,2-DIHYDROISOQUINOLINE-7-SULFONAMIDE], the IC50 [1] is reported as 184 nM.
In the case of `COc1cc(-c2ccc(F)c(F)c2)c(C)cc1-c1nccc2cc(S(=O)(=O)Nc3ccon3)ccc12` [Example 62, 1-(3′,4′-DIFLUORO-5-METHOXY-2-METHYL-[1,1′-BIPHENYL]-4-YL)-N-(ISOXAZOL-3-YL)ISOQUINOLINE-6-SULFONAMIDE], the IC50 (PatchXpress (PX)) is reported as 37.6 nM.
`COc1cc(-c2cc(C)cc(F)c2)c(C)cc1-c1nccc2cc(S(=O)(=O)Nc3ccon3)ccc12` [Example 273, 1-(3′-fluoro-5-methoxy-2,5′-dimethyl-4-biphenylyl)-N-3-isoxazolyl-6-isoquinolinesulfonamide] showed an IC50 (PatchXpress (PX)) of 73.3 nM.
`COc1cc(-c2ccc3c(c2)CCC3)c(C)cc1-c1ncnc2cc(S(=O)(=O)Nc3ccon3)ccc12` [Example 566, 4-(4-(2,3-dihydro-1H-inden-5-yl)-2-methoxy-5-methylphenyl)-N-3-isoxazolyl-7-quinazolinesulfonamide] was tested, and the IC50 [1] was 169 nM.
With `COc1cc(-c2cccc(F)c2)c(Cl)cc1-c1c(N)cnc2cc(S(=O)(=O)Nc3ccon3)ccc12` [Example 336, 3-amino-4-(2-chloro-3′-fluoro-5-methoxy-[1,1′-biphenyl]-4-yl)-N-(isoxazol-3-yl)quinoline-7-sulfonamide] the IC50 [1] was 35 nM.
